# Results published in patent US8053553B2, “Targeting host proteinases as a therapeutic strategy against viral and bacterial pathogens” (Socpra Sciences Sante Et Humaines, priority 2007, dated 2011).
# Target: T1, furin (Homo sapiens, UniProt P09958)
# T1 construct: made in house; host or cells: Drosophila S2 cells (Invitrogen expression system)
# Test: biochemical
# Settings: furin, Pyr-RTKR-AMC substrate; N-terminal deletions (Example 2, Table 6); read-out: Ki
# T1 sequence (P09958 108-794 limits assumed): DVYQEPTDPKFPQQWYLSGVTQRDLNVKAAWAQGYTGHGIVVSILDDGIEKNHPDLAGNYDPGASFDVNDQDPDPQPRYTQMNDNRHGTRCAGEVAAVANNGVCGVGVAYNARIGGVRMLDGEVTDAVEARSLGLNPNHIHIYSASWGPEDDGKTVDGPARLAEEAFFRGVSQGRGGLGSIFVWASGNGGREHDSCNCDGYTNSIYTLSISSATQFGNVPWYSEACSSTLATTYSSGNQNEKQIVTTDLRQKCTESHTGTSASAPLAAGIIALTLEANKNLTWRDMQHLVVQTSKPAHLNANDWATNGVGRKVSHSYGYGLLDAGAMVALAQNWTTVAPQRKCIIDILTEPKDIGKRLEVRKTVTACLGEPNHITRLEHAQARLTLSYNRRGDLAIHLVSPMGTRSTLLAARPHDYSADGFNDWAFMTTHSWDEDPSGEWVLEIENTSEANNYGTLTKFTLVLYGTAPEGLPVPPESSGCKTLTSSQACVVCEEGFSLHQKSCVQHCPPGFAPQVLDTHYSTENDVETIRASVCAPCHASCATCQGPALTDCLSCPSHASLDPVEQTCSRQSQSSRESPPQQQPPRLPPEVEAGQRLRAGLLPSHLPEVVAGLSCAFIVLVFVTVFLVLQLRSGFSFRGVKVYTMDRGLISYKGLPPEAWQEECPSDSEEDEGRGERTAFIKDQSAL
row,Compound,Ki [µM]
1,C[C@H](NC(=O)[C@H](CCCNC(=N)N)NC(=O)[C@@H]1CCCN1)C(=O)N[C@@H](CCCNC(=N)N)C(=O)N[C@@H](CCCNC(=N)N)C(=O)N[C@@H](CCCNC(=N)N)C(=O)N[C@@H](CCCCN)C(=O)N[C@@H](CCCCN)C(=O)N[C@@H](CCCNC(=N)N)C(=O)N[C@H](C(N)=O)[C@@H](C)O,0.0166

# Same assay, conditions: furin, Pyr-RTKR-AMC substrate; alanine scanning mutagenesis of the H5 furin cleavage sequence (Table 2); read-out: Ki
row,Compound,Ki [µM]
1,C[C@H](NC(=O)[C@H](CCCNC(=N)N)NC(=O)[C@@H]1CCCN1C(=O)[C@@H](N)[C@@H](C)O)C(=O)N[C@@H](CCCNC(=N)N)C(=O)N[C@@H](CCCNC(=N)N)C(=O)N[C@@H](CCCNC(=N)N)C(=O)N[C@@H](CCCCN)C(=O)N[C@@H](CCCCN)C(=O)N[C@@H](CCCNC(=N)N)C(N)=O,0.138
2,C[C@H](NC(=O)[C@H](CCCNC(=N)N)NC(=O)[C@@H]1CCCN1C(=O)[C@@H](N)[C@@H](C)O)C(=O)N[C@@H](CCCNC(=N)N)C(=O)N[C@@H](CCCNC(=N)N)C(=O)N[C@@H](CCCNC(=N)N)C(=O)N[C@@H](CCCCN)C(=O)N[C@@H](CCCCN)C(=O)N[C@@H](CCCNC(=N)N)C(=O)N(C)CC(N)=O,> 0.1
3,C[C@H](NC(=O)[C@H](C)NC(=O)[C@H](CCCNC(=N)N)NC(=O)[C@H](CCCNC(=N)N)NC(=O)[C@H](CCCNC(=N)N)NC(=O)[C@H](CCC(=O)O)NC(=O)[C@H](CCCNC(=N)N)NC(=O)[C@@H]1CCCN1C(=O)[C@@H](N)[C@@H](C)O)C(=O)N[C@@H](CCCNC(=N)N)C(N)=O,> 0.1
4,C[C@H](NC(=O)[C@H](C)NC(=O)[C@H](CCCNC(=N)N)NC(=O)[C@H](CCCNC(=N)N)NC(=O)[C@H](CCCNC(=N)N)NC(=O)[C@H](CCC(=O)O)NC(=O)[C@H](CCCNC(=N)N)NC(=O)[C@@H]1CCCN1C(=O)[C@@H](N)[C@@H](C)O)C(=O)N[C@@H](CCCNC(=N)N)C(=O)NCC(N)=O,> 0.1

# Same assay, conditions: furin, Pyr-RTKR-AMC substrate; optimization of the inhibitory peptides (Table 3); read-out: Ki
row,Compound,Ki [µM]
1,C[C@H](NC(=O)[C@H](CCCNC(=N)N)NC(=O)[C@H](CCC(N)=O)NC(=O)[C@@H]1CCCN1C(=O)[C@@H](N)[C@@H](C)O)C(=O)N[C@@H](CCCNC(=N)N)C(=O)N[C@@H](CCCNC(=N)N)C(=O)N[C@@H](CCCNC(=N)N)C(=O)N[C@@H](CCCCN)C(=O)N[C@@H](CCCCN)C(=O)N[C@@H](CCCNC(N)=O)C(=O)NCC(N)=O,> 0.1
2,C[C@H](NC(=O)[C@H](CCCNC(=N)N)NC(=O)[C@H](CCC(N)=O)NC(=O)[C@@H]1CCCN1C(=O)[C@@H](N)[C@@H](C)O)C(=O)N[C@@H](CCCNC(=N)N)C(=O)N[C@@H](CCCNC(=N)N)C(=O)N[C@@H](CCCNC(=N)N)C(=O)N[C@@H](CCCCN)C(=O)N[C@@H](CCCCN)C(=O)N[C@@H](CCCNC(=N)N)C(=O)NCC(N)=O,> 0.1
3,C[C@H](NC(=O)[C@H](CCCNC(=N)N)NC(=O)[C@H](CCC(N)=O)NC(=O)[C@@H]1CCCN1C(=O)[C@@H](N)[C@@H](C)O)C(=O)N[C@@H](CCCNC(=N)N)C(=O)N[C@@H](CCCNC(=N)N)C(=O)N[C@@H](CCCNC(=N)N)C(=O)N[C@@H](CCCCN)C(=O)N[C@@H](CCCCN)C(=O)N[C@H](CCCNC(=N)N)C(=O)NCC(N)=O,> 0.1
4,C[C@@H](O)[C@H](N)C(=O)N1CCC[C@H]1C(=O)N[C@@H](CCC(N)=O)C(=O)N[C@@H](CCCNC(=N)N)C(=O)N[C@@H](CS)C(=O)N[C@@H](CCCNC(=N)N)C(=O)N[C@@H](CCCNC(=N)N)C(=O)N[C@@H](CCCNC(=N)N)C(=O)N[C@@H](CCCCN)C(=O)N[C@@H](CCCCN)C(=O)N[C@@H](CCCNC(=N)N)C(=O)NCC(N)=O,> 0.1
5,C[C@@H](O)[C@H](N)C(=O)N1CCC[C@H]1C(=O)N[C@@H](CCC(N)=O)C(=O)N[C@@H](CCCNC(=N)N)C(=O)N[C@@H](CCC(=O)O)C(=O)N[C@@H](CCCNC(=N)N)C(=O)N[C@@H](CCCNC(=N)N)C(=O)N[C@@H](CCCNC(=N)N)C(=O)N[C@@H](CCCCN)C(=O)N[C@@H](CCCCN)C(=O)N[C@@H](CCCNC(=N)N)C(=O)NCC(N)=O,> 0.1
6,C[C@@H](O)[C@H](N)C(=O)N1CCC[C@H]1C(=O)N[C@@H](CCC(N)=O)C(=O)N[C@@H](CCCNC(=N)N)C(=O)N[C@@H](CCCCN)C(=O)N[C@@H](CCCNC(=N)N)C(=O)N[C@@H](CCCNC(=N)N)C(=O)N[C@@H](CCCNC(=N)N)C(=O)N[C@@H](CCCCN)C(=O)N[C@@H](CCCCN)C(=O)N[C@@H](CCCNC(=N)N)C(=O)NCC(N)=O,> 0.1
